Reference: patent publication US20240076347A1, “METHODS FOR PREVENTING FUNGAL INFECTIONS” (Cidara Therapeutics, Inc., priority 2016, published 2024)
Numbered stars: 1 amine (or outer) side, 2 acyl side, 3 side chain; on linkers, the order of the positions; unused ones are H or OH. Bridge positions count the residues as written; N and C are the ends. Square brackets hold non-standard residues; d marks the D form. Peptide text beside a SMILES is read from it. * marks the point of attachment. ξ: configuration not given here. Orn(4R-OH,5R-OCH2CH2NMe3+) = C[N+](C)(C)CCO[C@@H](N[*:3])[C@H](O)C[C@H](N[*:1])C(=O)[*:2]; pTerphenylCO(4''-OnC5H11) = CCCCCOc1ccc(-c2ccc(-c3ccc(C(=O)*)cc3)cc2)cc1; hTyr(3S-OH,4S-OH) = N[C@H](C(=O)O)[C@H](O)[C@@H](O)c1ccc(O)cc1; X1 = C[C@H]1CN([*:1])C(C(=O)[*:2])C1O; Hyp = O=C(O)[C@@H]1C[C@@H](O)CN1; ξT = CC(O)C(N)C(=O)O

Experiments:
[1] = Clinical pharmacokinetics in healthy adults (Phase 1); type: in vivo, human; conditions: for average 24 h AUC (free drug) over a 7 day period / free drug AUC0-168: human
Description: The in vitro activity of CD101 was previously evaluated as part of the SENTRY international surveillance program using CLSI broth microdilution methodology (M38-A2, M27-A3; Pfaller, et al 2017). […] These susceptibility data were then compared graphically to CD101 plasma concentrations from studies in healthy adults, adjusted for plasma protein binding. Nonclinical efficacy in a murine model of Pneumocystis pneumonia were also considered to evaluate CD101 doses for clinical investigation of antifungal prophylaxis.

[2] = tested on: Candida albicans (ATCC SC5314); experiment: Disseminated candidiasis in immunocompetent DBA/2 mice, prophylaxis, kidney fungal burden; type: in vivo
Description: Cultures of Candida albicans (ATCC SC5314) were grown overnight at 37° C. in an ambient atmosphere on Sabouraud agar. Cultures were removed from the incubator, aseptically transferred to tubes of phosphate buffered saline (PBS), and an optical density was determined at 600 nm. The cultures were diluted to provide a challenge inoculate of approximately 5.0 log10 CFU per mouse in a volume of 100 μL. Each animal was administered an intravenous (IV) challenge in a volume of 100 IL on Day 0. Instillation of the challenge constituted time 0 hour for the study.
Mice were treated with CD101 one time via subcutaneous (SC) injection prior to challenge on either Day −5, Day −3, Day −1 or Day 0 per Table 3. Micafungin and vehicle controls were administered on Day 0 as per Table 3. Day 0 treatment or control administration occurred immediately following the challenge. Test articles were administered in a volume of 0.5 mL.
The primary endpoint used to assess progress of the infection was mean CFU burden per gram of kidney tissue. At 24 hours post-challenge, mice were humanely euthanized via CO2 overexposure. Kidneys were aseptically removed, weighed, and transferred to sterile tubes containing 2 mL of PBS. Tissues were homogenized with a mini-bead beater. Serial dilutions of the tissue homogenates were plated on Sabouraud dextrose agar plates and incubated at 37° C. for 24-48 hours. CFU/g tissue was determined from colony counts.

## CCCCCOc1ccc(-c2ccc(-c3ccc(C(=O)N[C@H]4C[C@@H](O)[C@@H](OCC[N+](C)(C)C)NC(=O)C5C(O)[C@@H](C)CN5C(=O)[C@H]([C@@H](C)O)NC(=O)[C@H]([C@H](O)[C@@H](O)c5ccc(O)cc5)NC(=O)[C@@H]5C[C@@H](O)CN5C(=O)C(C(C)O)NC4=O)cc3)cc2)cc1 (stereo partly drawn) [CD101] ({pTerphenylCO(4''-OnC5H11)}-[Orn(4R-OH,5R-OCH2CH2NMe3+)][ξT][Hyp][hTyr(3S-OH,4S-OH)]T[X1]; lactam 1-C)
[1]; 400 mg and 200 mg
  plasma concentrations relative to MEC90: above the MEC90 for A. fumigatus for 7 days
[1]; Phase 1 subjects, single dose of 400 mg
  mean unbound plasma concentrations relative to MIC90: above the MIC90 for C. albicans for seven days
[1]; 200 mg dose
  average 24 h AUC (free drug) over a 7 day period: ~2200 ng·h/mL
  free drug AUC0-168: 15400 ng·h/mL
[1]; 400 mg dose
  average 24 h AUC (free drug) over a 7 day period: approximately 4.3 mg*h/L
  free drug AUC0-168: 30200 ng·h/mL
[2]; 3 mg/kg SC Day −1, all but one animal
  kidney CFU: cleared the infection completely
[2]; 3 mg/kg SC on Day −5 and Day −3 (two doses, inadvertent)
  kidney CFU: completely cleared the infection
[2]; 10 or 30 mg/kg SC at all pre-challenge time points, 24 hr harvest
  kidney CFU: cleared the infection completely
